From patent publication US12291519B2, “2-hydroxycycloalkane-1-carbamoyl” (Idorsia Pharmaceuticals Ltd, priority 2019, dated 2025)

What was measured:
human Gal-3 (hGal-3) = human Gal-3 (hGal-3) (Homo sapiens (Human), UniProt P17931); test: Competitive binding assay: biotinylated hGal-3 binding to microplate-adsorbed asialofetuin (ASF); conditions: Activity on hGal-3; binding of biotinylated hGal-3 to ASF-coated plates; mean values
Method in brief: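 Serially diluted compounds competed with biotinylated human Gal-3 for binding to plate-adsorbed asialofetuin over 3 h at 4 °C. Bound Gal-3 was detected with streptavidin-peroxidase (80 ng/mL, 1 h, 4 °C) and ABTS substrate. IC50 values are means of several measurements.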

human Gal-1 (hGal-1) = test: Competitive binding assay: biotinylated hGal-1 binding to microplate-adsorbed asialofetuin (ASF); conditions: Activity on hGal-1; binding of biotinylated hGal-1 to ASF-coated plates; mean values
Chain of human Gal-1 (hGal-1) (P09382 2-135 limits assumed): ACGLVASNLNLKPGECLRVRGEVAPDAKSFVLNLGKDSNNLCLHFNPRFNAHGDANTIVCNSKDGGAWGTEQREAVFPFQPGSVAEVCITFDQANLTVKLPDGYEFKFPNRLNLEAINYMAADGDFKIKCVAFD
Method in brief: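 Biotinylated hGal-1 (300–1000 ng/mL; optionally a cysteine-free all-serine variant) incubated 3 h at 4 °C with compound on asialofetuin-coated plates, then streptavidin-peroxidase 1 h at 4 °C. ABTS readout at OD 410 nm after 30–45 min; IC50 given as mean of several runs.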

Chain of human Gal-3 (hGal-3) (P17931 whole entry): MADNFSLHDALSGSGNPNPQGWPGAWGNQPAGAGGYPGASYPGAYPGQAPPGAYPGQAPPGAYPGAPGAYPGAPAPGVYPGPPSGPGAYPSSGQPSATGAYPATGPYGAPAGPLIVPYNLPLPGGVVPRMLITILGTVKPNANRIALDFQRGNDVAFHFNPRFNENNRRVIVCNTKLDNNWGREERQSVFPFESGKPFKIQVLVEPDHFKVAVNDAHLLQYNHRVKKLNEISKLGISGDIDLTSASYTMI

IC50 (human Gal-3 (hGal-3)) | IC50 (human Gal-1 (hGal-1)) | SMILES
0.191 µM | 1.6 µM | CC(=O)O[C@@H]1[C@@H](n2cc(-c3cccc(F)c3)nn2)[C@@H](O)[C@@H](CO)O[C@H]1C(=O)N(Cc1ccnn1C)[C@H]1CCCC[C@@H]1O [Example 52, (2R,3R,4S,5R,6R)-4-(4-(3-fluorophenyl)-1H-1,2,3-triazol-1-yl)-5-hydroxy-2-(((1S,2S)-2-hydroxycyclohexyl)((1-methyl-1H-pyrazol-5-yl)methyl)carbamoyl)-6-(hydroxymethyl)tetrahydro-2H-pyran-3-yl acetate]
0.013 µM | 0.177 µM | O=C(CO[C@@H]1[C@@H](n2cc(-c3cc(F)c(F)c(F)c3)nn2)[C@@H](O)[C@@H](CO)O[C@H]1C(=O)N(c1cc(Cl)cc(Cl)c1)[C@H]1CCCC[C@@H]1O)N1CC(O)C1 [Example 128]
0.061 µM | 0.726 µM | CO[C@@H]1[C@@H](n2cc(-c3cc(F)cc(Br)c3)nn2)[C@@H](O)[C@@H](CO)O[C@H]1C(=O)N(c1cc(Cl)cc(Cl)c1)[C@H]1CCCC[C@@H]1O [Example 144, (2R,3R,4S,5R,6R)-4-(4-(3-bromo-5-fluorophenyl)-1H-1,2,3-triazol-1-yl)-N-(3,5-dichlorophenyl)-5-hydroxy-N-((1S,2S)-2-hydroxycyclohexyl)-6-(hydroxymethyl)-3-methoxytetrahydro-2H-pyran-2-carboxamide]
0.317 µM | 1.2 µM | CO[C@@H]1[C@@H](n2cc(-c3cc(F)c(F)c(F)c3)nn2)[C@@H](O)[C@@H](CO)O[C@H]1C(=O)N(c1ccc2nc(Cl)sc2c1)[C@H]1CCCC[C@@H]1O [Example 107, (2R,3R,4S,5R,6R)-N-(2-chlorobenzo[d]thiazol-6-yl)-5-hydroxy-N-((1S,2S)-2-hydroxycyclohexyl)-6-(hydroxymethyl)-3-methoxy-4-(4-(3,4,5-trifluorophenyl)-1H-1,2,3-triazol-1-yl)tetrahydro-2H-pyran-2-carboxamide]
0.017 µM | 0.1 µM | CO[C@@H]1[C@@H](n2cc(-c3cc(F)c(F)c(F)c3)nn2)[C@@H](O)[C@@H](CO)O[C@H]1C(=O)N(c1cc(Br)ccc1C)[C@H]1CCCC[C@@H]1O [Example 109, (2R,3R,4S,5R,6R)-N-(5-bromo-2-methylphenyl)-5-hydroxy-N-((1S,2S)-2-hydroxycyclohexyl)-6-(hydroxymethyl)-3-methoxy-4-(4-(3,4,5-trifluorophenyl)-1H-1,2,3-triazol-1-yl)tetrahydro-2H-pyran-2-carboxamide]
0.352 µM | 11.7 µM | O=C([C@@H]1O[C@H](CO)[C@H](O)[C@H](n2cc(-c3cc(F)c(F)c(F)c3)nn2)[C@H]1O)N(Cc1csc(Br)n1)[C@H]1CCCC[C@@H]1O [Example 20, (2R,3R,4S,5R,6R)-N-((2-bromothiazol-4-yl)methyl)-3,5-dihydroxy-N-((1S,2S)-2-hydroxycyclohexyl)-6-(hydroxymethyl)-4-(4-(3,4,5-trifluorophenyl)-1H-1,2,3-triazol-1-yl)tetrahydro-2H-pyran-2-carboxamide]
0.044 µM | 1.17 µM | CC(=O)O[C@@H]1[C@@H](n2cc(-c3cc(F)c(Cl)c(F)c3)nn2)[C@@H](O)[C@@H](CO)O[C@H]1C(=O)N(Cc1ccccc1C(F)(F)F)[C@H]1CCCC[C@@H]1O [Example 68, (2R,3R,4S,5R,6R)-4-(4-(4-chloro-3,5-difluorophenyl)-1H-1,2,3-triazol-1-yl)-5-hydroxy-2-(((1S,2S)-2-hydroxycyclohexyl)(2-(trifluoromethyl)benzyl)carbamoyl)-6-(hydroxymethyl)tetrahydro-2H-pyran-3-yl acetate]
0.069 µM | 1.54 µM | COc1cccc(N(C(=O)[C@@H]2O[C@H](CO)[C@H](O)[C@H](n3cc(-c4cccc(F)c4)nn3)[C@H]2OC)[C@H]2CCCC[C@@H]2O)c1 [Example 73, (2R,3R,4S,5R,6R)-4-(4-(3-fluorophenyl)-1H-1,2,3-triazol-1-yl)-5-hydroxy-N-((1S,2S)-2-hydroxycyclohexyl)-6-(hydroxymethyl)-3-methoxy-N-(3-methoxyphenyl)tetrahydro-2H-pyran-2-carboxamide]
